From patent publication US7311914B2, “MAGE-A4 antigenic peptides and uses thereof” (Ludwig Institute for Cancer Research, priority 2002, dated 2007)

Tested on: CTL F2
Assay: Peptide recognition assay: 51Cr release lysis by CTL F2 of peptide-pulsed autologous EBV-B cells
Type: cell-based, human
Conditions: for lysis by CTL F2 of autologous EBV-B cells incubated with peptide (first screening of 16 amino-acid long peptides, FIG. 3A): 1 μg/ml of each peptide, E:T ratio 5:1, chromium release after 4 h; for EC50: CTL F2, E:T 5:1, 4 h chromium release (FIG. 3B), read-out: peptide concentration giving half maximal lysis of autologous EBV-B target cells; for recognition by CTL F2 of peptides of different lengths (peptide titration, FIG. 3B): autologous EBV-B targets, 3-fold peptide dilutions, HPLC purified peptides; for recognition by CTL F2 of peptides of different lengths (peptide titration, FIG. 3B) / recognition by CTL F2 of targets pulsed with peptides modified at the C-terminus (FIG. 3C): E:T 5:1, 4 h; for recognition by CTL F2 of targets pulsed with peptides modified at the C-terminus (FIG. 3C): very high and most probably not physiological concentration of peptide

How did the “lysis by CTL F2 of autologous EBV-B cells incubated with peptide (first screening of 16 amino-acid long peptides, FIG. 3A)” value turn out when “FPVIFGKASESLKMIF (listed as Homo sapiens) [16-mer MAGE-A4 peptide, amino acids 148-163]” was run?
Its value is “scored positive”.

How did the EC50 turn out when SESLKMIF was run?
The EC50 was 1 nM.

What about the “recognition by CTL F2 of peptides of different lengths (peptide titration, FIG. 3B)” value of the same sequence?
Its value is “scored positive”.

“SESLKMIFG (listed as Homo sapiens) [MAGE-A4 nonapeptide]” was tested. Which “recognition by CTL F2 of peptides of different lengths (peptide titration, FIG. 3B)” value did it give?
Its value is “not recognized”.

For SESLKMIFGI, which EC50 is on record?
The EC50 was 1 nM.

What about the “recognition by CTL F2 of peptides of different lengths (peptide titration, FIG. 3B)” value of the same sequence?
The value was “scored positive”.

How did the “lysis by CTL F2 of autologous EBV-B cells incubated with peptide (first screening of 16 amino-acid long peptides, FIG. 3A)” value turn out when “SESLKMIFGIDVKEVD (listed as Homo sapiens) [16-mer MAGE-A4 peptide, amino acids 156-171]” was run?
Its value is “scored positive”.

For “SESLKMIFI (listed as Homo sapiens) [nonapeptide with C-terminal G replaced by I]”, which “recognition by CTL F2 of targets pulsed with peptides modified at the C-terminus (FIG. 3C)” value is on record?
Its value is “recognized”.

With “SESLKMIFL (listed as Homo sapiens) [nonapeptide with C-terminal G replaced by L]” as the sequence, how does the “recognition by CTL F2 of targets pulsed with peptides modified at the C-terminus (FIG. 3C)” value read?
Its value is “recognized”.
